pIC50: −log10 of the molar value.
Columns and labels:
AsPC-1 = experiment: In vitro cell proliferation inhibition assay (CellTiter-Glo), AsPC-1; assay type: cell-based; conditions: AsPC-1, KRAS (p.G12D), 72 h; read-out: IC50, antiproliferative activity
Method: (§1) Due to the diversity of RAS mutations, and in order to evaluate the activity of the compounds in different RAS mutant cell lines, we selected cell lines with KRAS^G12D, KRAS^G12V, KRAS^G12c, NRAS^q61L, KRAS^G13D, KRAS^G12R, and KRAS^WT mutations (see the table below for in vitro activity evaluation and screening of the compounds.
(§2) According to the doubling time of different cell lines, different numbers of cells (1000-5000 cells/well) were seeded into 96-well plates containing 180 μL of the corresponding culture medium, and incubated overnight in a cell incubator at 37 °C with 5% C02. On the following day, the test compounds were pre-diluted in the culture medium in a 3-fold serial dilution series, with the highest concentration being […], resulting in 10 concentration gradients in total. Subsequently, 20 μL of culture medium containing the compounds at different concentrations was added to the cells in the 96-well plates, ensuring a final compound concentration of up to 10 μM, with 10 concentrations in 3-fold dilution. After co-incubation of the cells with the compounds for 72 h, the 96-well plates were removed from the incubator and equilibrated at room temperature for 30 min. Then, 25 μL of CellTiter-Glo® Reagent was added to each well and mixed thoroughly, followed by incubation at room temperature for 10 min. Subsequently, 100 μL of the samples was transferred to white 96-well plates (OptiPlate™-96, PerkinElmer), and […] signal values were read using a multifunctional microplate reader (SpectraMax i3x, Molecular Devices). The signal values were then normalized, and curve fitting was performed using a four-parameter logistic regression equation to calculate the half maximal inhibitory concentration (IC50) of the compounds against the cell lines.

SW480 = experiment: In vitro cell proliferation inhibition assay (CellTiter-Glo), SW480; assay type: cell-based; conditions: SW480, KRAS (p.G12V), 72 h; read-out: IC50, antiproliferative activity
Method: as §1, §2

H358 = experiment: In vitro cell proliferation inhibition assay (CellTiter-Glo), H358; assay type: cell-based; conditions: H358, KRAS (p.G12C), 72 h; read-out: IC50, antiproliferative activity
Method: as §1, §2

HepG2 = experiment: In vitro cell proliferation inhibition assay (CellTiter-Glo), HepG2; assay type: cell-based; conditions: HepG2, NRAS (p.Q61L), 72 h; read-out: IC50, antiproliferative activity
Method: as §1, §2

HCT116 = experiment: In vitro cell proliferation inhibition assay (CellTiter-Glo), HCT116; assay type: cell-based; conditions: HCT116, KRAS (p.G13D), 72 h; read-out: IC50, antiproliferative activity
Method: as §1, §2

PSN1 = experiment: In vitro cell proliferation inhibition assay (CellTiter-Glo), PSN1; assay type: cell-based; conditions: PSN1, KRAS (p.G12R), 72 h; read-out: IC50, antiproliferative activity
Method: as §1, §2

MV411 = experiment: In vitro cell proliferation inhibition assay (CellTiter-Glo), MV411; assay type: cell-based; conditions: MV411, KRAS wild type, 72 h; read-out: IC50, antiproliferative activity
Method: as §2

[1] = Pharmacokinetic study in mice; assay type: in vivo; conditions: mouse, male CD-1 mice; for bioavailability: blood; for bioavailability / AUC / Cmax: po, p.o. 2 mpk; for bioavailability / Vd / clearance: i.v. 1 mpk; for Vd / clearance: iv, 1 mg/kg; for Vd / clearance / AUC / Cmax: whole blood; for AUC / Cmax: 2 mg/kg
Method: To evaluate the pharmacokinetic behavior of the compounds of the disclosure in male CD-1 mice, the test compounds were dissolved in a solvent (5% DMSO/10% solutol/85% water). Twelve male CD-1 mice were divided into two groups, with six animals in each group. Group 1 received a single intravenous bolus (i.v.) administration of the compound, and Group 2 received a single oral (p.o.) administration of the compound. Whole blood samples were collected at 0.083 h (intravenous group only), 0.25, 0.5, 1, 2, 4, 8, and 24 hours after dosing. The concentration of the test compound in whole blood samples was determined using the LC-MS/MS method.

Row | SMILES | pIC50 (AsPC-1) | pIC50 (SW480) | pIC50 (H358) | pIC50 (HepG2) | pIC50 (HCT116) | pIC50 (PSN1) | pIC50 (MV411) | bioavailability [1] | Vd [1] | clearance [1] | AUC [1] | Cmax [1]
1 | CCn1c(-c2cc(-c3nnc([C@H]4CCCN(C5COC5)C4)o3)cnc2[C@H](C)OC)c2c3cc(ccc31)-c1csc(n1)C[C@H](NC(=O)[C@H]1C[C@@H]1C)C(=O)N1CCC[C@H](N1)C(=O)OCC(C)(C)C2 (atropisomer, axis not shown) [Compound 18, (1S,2S)—N-((6^3S,4S,Z)-1^1-ethyl-1^2-(2-((S)-1-methoxyethyl)-5-(5-((S)-1-(oxetan-3-yl)piperidin-3-yl)-1,3,4-oxadiazol-2-yl)pyridin-3-yl)-10,10-dimethyl-5,7-dioxo-6^1,6^2,6^3,6^4,6^5,6^6-hexahydro-1^1H-8-oxa-2(4,2)-thiazola-1(5,3)-indola-6(1,3)-pyridazinacycloundecaphane-4-yl)-2-methylcyclopropane-1-carboxamide] | 10.52 | 9.89 | 9.41 | 8.80 | 7.64 | 8.28 | 7.89 | – | – | – | – | –
2 | CCn1c(-c2cc(N3CCN(C)CC3)cnc2[C@H](C)OC)c2c3cc(ccc31)-c1csc(n1)C[C@H](NC(=O)[C@H]1C[C@@H]1C)C(=O)N1CCC[C@H](N1)C(=O)OCC(C)(C)C2 [RMC-6236] | 8.92 | 8.82 | 10.10 | 8.55 | 8.59 | 8.70 | 8.38 | – | – | – | – | –
3 | CCn1c(-c2cc(-c3nnc(C4CCN(C5COC5)CC4)o3)cnc2[C@H](C)OC)c2c3cc(ccc31)-c1csc(n1)C[C@H](NC(=O)[C@H]1C[C@@H]1C)C(=O)N1CCC[C@H](N1)C(=O)OCC(C)(C)C2 (atropisomer, axis not shown) [Compound 1, (1S,2S)—N-((6^3S,4S,Z)-1^1-ethyl-1^2-(2-((S)-1-methoxyethyl)-5-(5-(1-(oxetan-3-yl)piperidin-4-yl)-1,3,4-oxadiazol-2-yl)pyridin-3-yl)-10,10-dimethyl-5,7-dioxo-6^1,6^2,6^3,6^4,6^5,6^6-hexahydro-1^1H-8-oxa-2(4,2)-thiazola-1(5,3)-indola-6(1,3)-pyridazinacycloundecaphane-4-yl)-2-methylcyclopropane-1-carboxamide] | 10.30 | 10.15 | 10.22 | 8.30 | ~8.00 | 8.29 | 8.77 | – | – | – | – | –
4 | CO[C@@H](C)c1ncc(-c2nnc(C3CCN(C4COC4)C3)o2)cc1-c1c2c3cc(ccc3n1CC(F)(F)F)-c1csc(n1)C[C@H](NC(=O)[C@H]1[C@H](C)[C@@H]1C)C(=O)N1N[C@H](C(=O)OCC(C)(C)C2)C2CC1C2 (stereo partly drawn) [Example 46] | 10.30 | 10.22 | 11.00 | 10.30 | 9.24 | 10.05 | 9.00 | – | – | – | – | –
5 | CO[C@@H](C)c1ncc(-c2nnc(C3CCN(C4CCN(C)CC4)CC3)o2)cc1-c1c2c3cc(ccc3n1CC(F)(F)F)-c1csc(n1)C[C@H](NC(=O)[C@H]1[C@@H]3COC[C@@H]31)C(=O)N1N[C@H](C(=O)OCC(C)(C)C2)C2CC1C2 [Example 45] | 10.22 | 9.43 | 11.00 | 10.66 | 8.96 | 10.40 | 9.38 | – | – | – | – | –
6 | CO[C@@H](C)c1ncc(-c2noc(C3CCN(C4COC4)CC3)n2)cc1-c1c2c3cc(ccc3n1CC(F)(F)F)-c1csc(n1)C[C@H](NC(=O)[C@H]1[C@H](C)[C@@H]1C)C(=O)N1N[C@H](C(=O)OCC(C)(C)C2)C2CC1C2 [Example 42] | 11.00 | 10.70 | 10.52 | 11.00 | 10.52 | 11.00 | 9.25 | – | – | – | – | –
7 | CO[C@@H](C)c1ncc(-c2nnc(C3CCN(C4COC4)CC3)o2)cc1-c1c2c3cc(ccc3n1CC(F)(F)F)-c1csc(n1)C[C@H](NC(=O)C1C[C@@H]1C)C(=O)N1N[C@H](C(=O)OCC(C)(C)C2)C2CC1C2 (stereo partly drawn) [Compound 9] | 10.05 | 10.22 | 10.39 | 9.80 | 9.64 | 11.00 | 9.12 | 63.3% | 2.87 L/kg | 3.7 mL/min/kg | 5740 ng·h/mL | 248 ng/mL
8 | CCn1c(-c2cc(-c3nc(C4CCN(C5COC5)CC4)n(C4COC4)n3)cnc2[C@H](C)OC)c2c3cc(ccc31)-c1csc(n1)C[C@H](NC(=O)[C@H]1C[C@@H]1C)C(=O)N1CCC[C@H](N1)C(=O)OCC(C)(C)C2 (atropisomer, axis not shown) [Compound 26, (1S,2S)—N-((6^3S,4S,Z)-1^1-ethyl-1^2-(2-((S)-1-methoxyethyl)-5-(1-(oxetan-3-yl)-5-(1-(oxetan-3-yl)piperidin-4-yl)-1H-1,2,4-triazol-3-yl)pyridin-3-yl)-10,10-dimethyl-5,7-dioxo-6^1,6^2,6^3,6^4,6^5,6^6-hexahydro-1^1H-8-oxa-2(4,2)-thiazola-1(5,3)-indola-6(1,3)-pyridazinacycloundecaphane-4-yl)-2-methylcyclopropane-1-carboxamide] | 9.60 | 9.27 | 11.00 | 9.60 | 8.49 | 10.10 | 9.19 | – | – | – | – | –
9 | CO[C@@H](C)c1ncc(-c2nnc(C3CCN(C4COC4)C[C@@H]3C)o2)cc1-c1c2c3cc(ccc3n1CC(F)(F)F)-c1csc(n1)C[C@H](NC(=O)[C@H]1[C@H](C)[C@@H]1C)C(=O)N1N[C@H](C(=O)OCC(C)(C)C2)C2CC1C2 (stereo partly drawn) [Compound 38] | 11.00 | 10.40 | 10.40 | 9.96 | 10.70 | 11.00 | 9.35 | – | – | – | – | –
10 | CCn1c(-c2cc(-c3nc(C4CCN(C5COC5)CC4)n(CCN(C)C)n3)cnc2[C@H](C)OC)c2c3cc(ccc31)-c1csc(n1)C[C@H](NC(=O)[C@H]1C[C@@H]1C)C(=O)N1CCC[C@H](N1)C(=O)OCC(C)(C)C2 (atropisomer, axis not shown) [Compound 27, (1S,2S)—N-((6^3S,4S,Z)-1^2-(5-(1-(2-(dimethylamino)ethyl)-5-(1-(oxetan-3-yl)piperidin-4-yl)-1H-1,2,4-triazol-3-yl)-2-((S)-1-methoxyethyl)pyridin-3-yl)-1^1-ethyl-10,10-dimethyl-5,7-dioxo-6^1,6^2,6^3,6^4,6^5,6^6-hexahydro-1^1H-8-oxa-2(4,2)-thiazola-1(5,3)-indola-6(1,3)-pyridazinacycloundecaphane-4-yl)-2-methylcyclopropane-1-carboxamide] | 9.43 | 9.06 | 9.77 | 10.30 | 7.96 | 9.80 | 8.96 | – | – | – | – | –
11 | CCn1c(-c2cc(-c3nnc(C4CCN(C5COC5)CC4)o3)cnc2[C@H](C)OC)c2c3cc(ccc31)-c1csc(n1)C[C@H](NC(=O)[C@H]1[C@H](C)[C@@H]1C)C(=O)N1CCC[C@H](N1)C(=O)OCC(C)(C)C2 (atropisomer, axis not shown) [Compound 2, (1r,2R,3S)—N-((6^3S,4S,Z)-1^1-ethyl-1^2-(2-((S)-1-methoxyethyl)-5-(5-(1-(oxetan-3-yl)piperidin-4-yl)-1,3,4-oxadiazol-2-yl)pyridin-3-yl)-10,10-dimethyl-5,7-dioxo-6^1,6^2,6^3,6^4,6^5,6^6-hexahydro-1^1H-8-oxa-2(4,2)-thiazola-1(5,3)-indola-6(1,3)-pyridazinacycloundecaphane-4-yl)-2,3-dimethylcyclopropane-1-carboxamide] | 10.22 | 10.05 | 11.70 | 11.00 | 10.15 | 11.00 | 9.80 | 24.5% | 1.95 L/kg | 4.6 mL/min/kg | 1790 ng·h/mL | 167 ng/mL

From US20260355191A1, “PAN-RAS INHIBITOR COMPOUND” (ADLAI NORTYE BIOPHARMA CO., LTD., priority 2024, published 2026)
